# How the values were obtained:
# [1] = test system: flabby skin or skin wrinkles/finely-wrinkles; experiment: Experiment 6: self-evaluation of lotions with AMP and/or CoQ10 on flabby skin or skin wrinkles/finely-wrinkles, three months; assay type: in vivo, human; conditions: lotion, 3 months
# Excerpt: Eleven women as volunteers, who had been suffering from skin wrinkles/finely-wrinkles or flabby skin, were allowed to wash their faces with any of the lotions having compositions in Table 5 three times a day for four months and then allowed to evaluate themselves about their face-skin conditions by comparing with those before use of the lotions. […] The influence of a combination use of α,α-trehalose or saccharide derivatives thereof, sodium hyaluronate and/or chondroitin sulfate, and adenosine monophosphate (may be abbreviated as “AMP”, hereinafter) and/or coenzyme Q10 (may be abbreviated as “CoQ10”, hereinafter) on the skin was examined by the following experiment. One hundred parts by weight of respective lotions were prepared by adding to fresh preparations of the same lotion with the basic composition ratio as used in Experiment 5 sodium hyaluronate, chondroitin sulfate, hydrous crystalline α,α-trehalose, a cosmetic grade specimen commercialized by Hayashibara Biochemical Laboratories Inc., Okayama, Japan, and “[…]”, a product name of a syrup having saccharide derivatives of α,α-trehalose commercialized by Hayashibara Biochemical Laboratories Inc., Okayama, Japan, AMP, and CoQ10 according to the combinations and compositions as in Table 6 below. The amounts of added saccharides are represented based on a dry solid basis. The syrup containing saccharide derivatives of α,α-trehalose was added to each lotion to give respective composition ratios as in Table 6. Any of the lotions was allowed to be used every day by 11 females who had been suffering from flabby skin or skin wrinkles/finely-wrinkles, three times a day for three months, and the results were evaluated on flabby skin or skin wrinkles/finely-wrinkles by the method similarly as in Experiment 5.
# [2] = test system: NHDF cells (normal human dermal fibroblast cell); experiment: Experiment 1: collagen production in NHDF cells (Sircol kit), α,α-trehalose with AA-2G; assay type: cell-based; conditions: relative to AA-2G = 100
# Protocol: Using “fibrocell NHDF”, a normal human dermal fibroblast cell, commercialized by Kurashiki Spinning Co., Ltd., Okayama, Japan (abbreviated as “NHDF cells”, hereinafter), experiment for studying the influence of α,α-trehalose on the collagen production by L-ascorbic acids was conducted based on the method described in Bioscience, Biotechnology, and Biochemistry, Vol. 68, No. 4, pp. 767-773, 2004. The method is outlined below: Test solutions were prepared by dissolving L-ascorbic acid 2-glucoside, a reagent grade specimen commercialized by Hayashibara Biochemical Laboratories Inc., Okayama, Japan (may be abbreviated as “AA-2G”, hereinafter), and α,α-trehalose, a reagent grade specimen commercialized by Hayashibara Biochemical Laboratories Inc., Okayama, Japan, in Dulbecco […] essential medium containing 10% (v/v) fetal calf serum and an antibiotic (abbreviated as “D-MEM”, hereinafter) to give a final concentration of 50 μM/ml of AA-2G and a final concentration of 7.5, 15 or 30 mg/ml of α,α-trehalose. NHDF cells, which had been successively cultured in D-MEM medium, were collected, re-suspended in a fresh preparation of D-MEM medium, inoculated to 96-well microplates at a cell concentration of 2.5×10^4 cells/200 μl/well, and cultured for 24 hours. Thereafter, the supernatants of the cultures were removed by sucking, and further cultured for five days after addition of any of the test solutions in a volume of 200 μl/well. As controls, the cells, which had been cultured for 24 hours, were further cultured for five days after addition of 200 μl/well of D-MEM medium, D-MEM medium supplemented with α,α-trehalose at a concentration of 30 mg/ml, or D-MEM medium supplemented with AA-2G at a concentration of 50 μM/ml. After completion of culturing, the supernatants of the cultures were removed by sucking, admixed with 50 μl/well of 1 M acetic acid solution containing 1 mg/ml of pepsin, and shaken for four hours to solubilize collagen adhered to the cell surfaces, followed by quantifying the content of collagen accumulated in the cells using “Sircol Collagen Quantification Kit”, commercialized by Biocolor Ltd. These control and test solutions were respectively experimented with three wells, followed by calculating a mean value for collagen-production levels in the wells. All the cultures of the NHDF cells were conducted in a 5% (v/v) CO2 incubator. The results are in Table 1 where the values are expressed with relative values in terms of the collagen-production level of NHDF cells, which had been cultured in D-MEM medium containing AA-2G, being regarded as 100.
# [3] = saccharide one part by weight + AMP 0.1 + CoQ10 0.1
# [4] = saccharide one part by weight + AMP 0.2
# [5] = saccharide one part by weight + CoQ10 0.2
# [6] = saccharide one part by weight + sodium hyaluronate 0.1 + chondroitin sulfate 0.1 + AMP 0.1 + CoQ10 0.1
# [7] = saccharide one part by weight + sodium hyaluronate 0.1 + chondroitin sulfate 0.1 + AMP 0.2
# [8] = saccharide one part by weight + sodium hyaluronate 0.1 + chondroitin sulfate 0.1 + CoQ10 0.2
# [9] = saccharide one part by weight + sodium hyaluronate 0.1 + chondroitin sulfate 0.1
# [10] = saccharide one part by weight alone, 3 times a day
smiles,measurement,setting,value
"OC[C@H]1O[C@H](O[C@H]2O[C@H](CO)[C@@H](O)[C@H](O)[C@H]2O)[C@H](O)[C@@H](O)[C@@H]1O [α,α-trehalose]",Evaluation A (remarkably efficacious),[1]; [3],2 number of volunteers
same,Evaluation B (efficacious),[1]; [3],3 number of volunteers
same,Evaluation C (slightly efficacious),[1]; [3],5 number of volunteers
same,Evaluation D (inefficacious),[1]; [3],1 number of volunteers
same,Evaluation A (remarkably efficacious),[1]; [4],2 number of volunteers
same,Evaluation B (efficacious),[1]; [4],2 number of volunteers
same,Evaluation C (slightly efficacious),[1]; [4],6 number of volunteers
same,Evaluation D (inefficacious),[1]; [4],1 number of volunteers
same,Evaluation A (remarkably efficacious),[1]; [5],1 number of volunteers
same,Evaluation B (efficacious),[1]; [5],3 number of volunteers
same,Evaluation C (slightly efficacious),[1]; [5],6 number of volunteers
same,Evaluation D (inefficacious),[1]; [5],1 number of volunteers
same,Evaluation A (remarkably efficacious),[1]; [6],5 number of volunteers
same,Evaluation B (efficacious),[1]; [6],5 number of volunteers
same,Evaluation C (slightly efficacious),[1]; [6],1 number of volunteers
same,Evaluation D (inefficacious),[1]; [6],0 number of volunteers
same,Evaluation A (remarkably efficacious),[1]; [7],3 number of volunteers
same,Evaluation B (efficacious),[1]; [7],4 number of volunteers
same,Evaluation C (slightly efficacious),[1]; [7],4 number of volunteers
same,Evaluation D (inefficacious),[1]; [7],0 number of volunteers
same,Evaluation A (remarkably efficacious),[1]; [8],4 number of volunteers
same,Evaluation B (efficacious),[1]; [8],3 number of volunteers
same,Evaluation C (slightly efficacious),[1]; [8],4 number of volunteers
same,Evaluation D (inefficacious),[1]; [8],0 number of volunteers
same,Evaluation A (remarkably efficacious),[1]; [9],2 number of volunteers
same,Evaluation B (efficacious),[1]; [9],4 number of volunteers
same,Evaluation C (slightly efficacious),[1]; [9],4 number of volunteers
same,Evaluation D (inefficacious),[1]; [9],1 number of volunteers
same,Evaluation A (remarkably efficacious),[1]; [10],1 number of volunteers
same,Evaluation B (efficacious),[1]; [10],2 number of volunteers
same,Evaluation C (slightly efficacious),[1]; [10],6 number of volunteers
same,Evaluation D (inefficacious),[1]; [10],2 number of volunteers
same,Collagen-production level,"[2]; α,α-trehalose 7.5 mg/ml + 50 μM AA-2G",150
same,Collagen-production level,"[2]; α,α-trehalose 15.0 mg/ml + 50 μM AA-2G",217
same,Collagen-production level,"[2]; α,α-trehalose 30.0 mg/ml + 50 μM AA-2G",264
same,Collagen-production level,"[2]; α,α-trehalose 30.0 mg/ml in D-MEM, no AA-2G",41
